Columns and labels:
[1] = molecular target: T1, MNK1 (Homo sapiens, UniProt Q9BUB5); assay: MNK inhibition assay (Z-Lyte kinase assay, Ser/Thr 7 peptide); assay type: biochemical; conditions: for IC50: recombinant GST-MNK1, 3 hours at 31° C.
T1 construct: purchased Life Technologies or Carna Biosciences PV6023 or 02-145; host or cells: baculovirus infected insect cells
In short: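 Recombinant GST-MNK1 from baculovirus-infected insect cells, Z-Lyte Ser/Thr 7 peptide, enzyme set for ~30% phosphorylation in buffer-only wells; 3 hours at 31° C. Compounds at 50–10000 nM (potent ones down to 0.5 nM), at least duplicate. IC50 from % substrate phosphorylation versus buffer-only wells, fluorescence read-out.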

[2] = system: human pancreatic cancer cell line MiaPaCa2 (ATCC CRL-1420); assay: Cell growth assay (CellTiterGlo, 72 hours); assay type: cell-based; conditions: for IC50: MIA PaCa-2, MiaPaCa2 cells, 72 hours, read-out: IC50 MiaPaCa
In short: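 MiaPaCa2 cells (10^3/well) seeded in supplemented DMEM overnight, then exposed in quadruplicate to compound at 100 down to 0.1 μM for 72 h at 37° C. Growth read by CellTiterGlo luminescence, medium-only background subtracted, normalised to untreated cells; IC50 = concentration reducing growth to 50%.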

T1 sequence (Q9BUB5 whole entry): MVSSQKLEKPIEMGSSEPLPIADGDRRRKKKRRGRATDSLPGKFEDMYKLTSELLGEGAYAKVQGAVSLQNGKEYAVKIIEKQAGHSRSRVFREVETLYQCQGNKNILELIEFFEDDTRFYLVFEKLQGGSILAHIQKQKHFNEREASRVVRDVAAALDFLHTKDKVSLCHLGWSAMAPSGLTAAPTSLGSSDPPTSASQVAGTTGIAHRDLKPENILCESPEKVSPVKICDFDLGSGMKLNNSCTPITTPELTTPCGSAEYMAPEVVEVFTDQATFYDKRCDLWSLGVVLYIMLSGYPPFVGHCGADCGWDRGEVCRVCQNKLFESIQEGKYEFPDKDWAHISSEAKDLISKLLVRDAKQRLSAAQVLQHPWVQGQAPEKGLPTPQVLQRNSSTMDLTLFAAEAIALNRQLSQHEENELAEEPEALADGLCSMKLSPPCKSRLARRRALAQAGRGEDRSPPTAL

IC50 [1]	IC50 [2]	inhibition at 10 µM ([1]; at 10 μM, read-out: Inhibition of MNK1 activity at indicated concentration)	SMILES	inhibition at 100 µM ([2]; MIA PaCa-2, at 100 μM, read-out: Inhibition of MiaPaCa growth at indicated concentration)	inhibition at 50 µM ([2]; MIA PaCa-2, at 50 μM, read-out: Inhibition of MiaPaCa growth at indicated concentration)
222 nM	11600 nM	–	c1ccc2oc(-c3cncc4ccc(CN5CCNCC5)cc34)cc2c1 [Example 224, 4-(Benzofuran-2-yl)-6-(piperazin-1-ylmethyl)isoquinoline]	–	–
177 nM	12100 nM	–	NC1CCN(Cc2ccc3cncc(-c4ccsc4)c3c2)CC1 [Example 180]	–	–
175 nM	5070 nM	–	NC1CCN(Cc2ccc3cncc(-c4cc5cnccc5o4)c3c2)CC1 [Example 275]	–	–
142 nM	13800 nM	–	Nc1ncc2ccc(CN3CCC(N)CC3)cc2c1-c1ccc(O)cc1 [Example 163]	–	–
–	14800 nM	41%	FC(F)(F)c1cc(NCc2ccc3cncc(-c4cc5ccccc5o4)c3c2)ccn1 [Example 64]	–	–
750 nM	2550 nM	–	CC(C)Oc1cc(CN2CCC(N)CC2)cc2c(-c3cc4ccccc4o3)cncc12 [Example 283, 1-[[4-(benzofuran-2-yl)-8-isopropoxy-6-isoquinolyl]methyl]piperidin-4-amine]	–	–
282 nM	2060 nM	–	Nc1ncc(-c2cc3ccccc3o2)c2cc(N[C@H]3CC[C@H](N)CC3)cc(Cl)c12 [Example 313]	–	–
308 nM	21900 nM	–	NC1CCN(Cc2cc3c(-c4ccccc4)cncc3cc2O)CC1 [Example 265, 6-[(4-Amino-1-piperidyl)methyl]-4-phenyl-isoquinolin-7-ol]	–	–
93 nM	34600 nM	–	Nc1ccc(-c2cncc3ccc(CN4CCC(N)CC4)cc23)cc1 [Example 2]	–	–
687 nM	8540 nM	–	NCCCOCc1ccc2c(N)ncc(-c3cc4ccccc4o3)c2c1 [Example 109, 6-(3-Aminopropoxymethyl)-4-(benzofuran-2-yl)isoquinolin-1-amine]	–	–
57 nM	5580 nM	–	CN(Cc1ccc2cncc(-c3cc4ccccc4o3)c2c1)c1ccncc1 [Example 67]	–	–
229 nM	20400 nM	–	Cc1ccc(-c2cncc3ccc(CN4CCNCC4)cc23)o1 [Example 226]	–	–
1070 nM	7720 nM	–	COc1ccc2oc(-c3cncc4ccc(CN5CCC(N)CC5)cc34)cc2c1 [Example 175]	–	–
3120 nM	–	–	Nc1ccc(Nc2ccc3cncc(-c4cc5ccccc5o4)c3c2)cc1 [Example 132, N1-[4-(Benzofuran-2-yl)-6-isoquinolyl]benzene-1,4-diamine]	53%	–
418 nM	1700 nM	–	c1ccc2oc(-c3cncc4ccc(NC5CCCNC5)cc34)cc2c1 (stereo not drawn) [Example 212]	–	–
474 nM	1960 nM	–	COc1cc(N[C@H]2CC[C@H](N)CC2)cc2c(-c3cc4ccccc4o3)cncc12 [Example 143, N4-[4-(benzofuran-2-yl)-8-methoxy-6-isoquinolyl]cyclohexane-1,4-diamine]	–	–
334 nM	26000 nM	–	N#Cc1ccc(-c2cncc3ccc(CN4CCC(N)CC4)cc23)cc1 [Example 4]	–	–
465 nM	24000 nM	–	N[C@H]1CC[C@@H](NC(=O)c2ccc3cncc(-c4cc5ccccc5o4)c3c2)CC1 [Example 161]	–	–
496 nM	–	–	NC1CCC(NCc2ccc3cncc(-c4ccc(O)cc4)c3c2)C1 (stereo not drawn) [Example 42, 4-[6-[[(3-Aminocyclopentyl)amino]methyl]-4-isoquinolyl]phenol]	–	44%
44 nM	7860 nM	–	NC1CCN(Cc2cc3c(-c4cc5ccccc5o4)cncc3cc2F)CC1 [Example 249]	–	–
300 nM	1680 nM	–	COc1cc(CN2CCC(N)CC2)cc2c(-c3ccc(Cl)cc3)cnc(N)c12 [Example 295, 6-[(4-Amino-1-piperidyl)methyl]-4-(4-chlorophenyl)-8-methoxy-isoquinolin-1-amine]	–	–
534 nM	1420 nM	–	c1ccc2oc(-c3cncc4ccc(NCC5CCCNC5)cc34)cc2c1 (stereo not drawn) [Example 214]	–	–
5720 nM	2470 nM	–	Nc1ncc(-c2cc(Cl)cc(Cl)c2)c2cc(CN3CCC(N)CC3)ccc12 [Example 218]	–	–
340 nM	5630 nM	–	NC1CCN(Cc2ccc3cncc(-c4cc5cc(Cl)ccc5o4)c3c2)CC1 [Example 188]	–	–

Source: patent publication US20200031811A1, “SUBSTITUTED MONO- AND POLYAZANAPHTHALENE DERIVATIVES AND THEIR USE” (Basilea Pharmaceutica International AG, priority 2015, published 2020)
